The values that follow come from patent publication US20230303599A1, “PRODRUGS OF PHOSPHONAMIDE NUCLEOTIDE ANALOGUES AND THEIR PHARMACEUTICAL USE” (priority 2020, published 2023).

Data set [1] can be described thus: Kinetic solubility analysis. The format is physicochemical. The note with it: 1× PBS, 24.2 °C, aqueous buffer, kinetic from dmso stock; pH 7.4 PBS, 1% DMSO, 24-hour incubation at ambient temperature. The essentials:
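Compounds from 10 mM DMSO stocks were incubated in 0.1 N HCl or 1× PBS pH 7.4 (1.0% DMSO, 100 μM maximum theoretical) for 24 h at 24.2-27.5 °C, then vacuum filtered. Filtrates were quantified in μM by chemiluminescent nitrogen detection against a calibration curve, corrected for background nitrogen; values for adjacent ring-nitrogen compounds were raised ~25%.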

The nature of data set [2]: Cytotoxicity assay in MT-4 cells. The conditions noted are these: human, uninfected MT-4 cells, average of at least two independent experiments, read-out: MT4 CC50. The format is cell-based. A digest of the protocol: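 Uninfected MT-4 cells were incubated 5 days at 37 °C with 1:3 serially diluted compound in RPMI (10% FBS), with 10 μM puromycin as baseline cytotoxicity. Viability was read by CellTiter-Glo luminescence. Values are concentrations giving 50% luminescence decrease, from sigmoidal dose-response fits.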

Data set [3] in a line: Cytotoxicity assay in primary human hepatocytes (PHHs). The note with it: HBV-infected primary human hepatocytes, HBV-infected PHH, Cell Titer Glo, average of at least two independent experiments. The format is cell-based. On the procedure: Example 107: Cytotoxicity Assay in Primary Human Hepatocytes (PHHs)
The HBV-infected primary human hepatocytes are seeded (20K cells/well in 80 uL of Media) in 384well collagen coated plates pre-spotted with compounds. After 5 days, 40 ul of cell supernatant is removed to quantify HBV DNA levels as described in Example 106. Then, 40 ul Cell Titer Glo Reagent (Promega Catalog Number: G7572) is added to the remaining cells and luminescence is measured on the EnVision microplate reader.

The test system of the next data set is HBV. In words: Antiviral (HBV) assay in primary human hepatocytes (PHHs). The format is cell-based. The note with it: Hepatitis B virus, Hepatocyte, 120 h; HBV (GTD) infected PHH, 5 days, HBV DNA in supernatant; average of at least two independent experiments. Here is the method:
Example 106: Antiviral (HBV) Assay in Primary Human Hepatocytes (PHHs)
Cryopreserved PHH were thawed, recovered by centrifugation at 100 g in cryopreserved hepatocyte recovery medium (Thermo Fisher Scientific; CM7500), and plated on collagen matrix (Life Technologies; Catalog Number: R-011-K) coated T225 flasks (Corning CellBIND, Catalog Number: 3293) at a density of 25E6 live cells in 60 mls media. Cells were plated in William's E medium (Thermo Fisher Scientific; A1217601) supplemented with 3.6% hepatocyte thawing and plating supplement (Thermo Fisher Scientific, A15563), 5% fetal bovine serum (Thermo Fisher Scientific; 16000-036), 1 μM dexamethasone (Thermo Fisher Scientific, A15563), and 0.2% Torpedo antibiotic mix (Bioreclamation; Z990008). The plating medium was removed after 14 hours and the cells were subsequently cultured in maintenance medium: William's E medium supplemented with 4% hepatocyte maintenance supplement (Thermo Fisher Scientific; AI15564), 2% fetal bovine serum, 0.1μ M dexamethasone, 1.5% DMSO (Sigma-Aldrich, St. Louis, MO; D8418), and 0.2% Torpedo antibiotic mix. Approximately 24 hours after plating, PHH were infected with HepAD38-derived GTD virus at 500 viral genome equivalents per cell in PHH maintenance medium supplemented with 4% PEG 8000 (Promega, Madison, WI; V3011). Infections were allowed to proceed for 24 hours before removing the remaining extracellular virions by washing with maintenance medium three times. After allowing viral infection to take place for 3 days, the infected cells were harvested from the flasks by trypsinization (0.25X in PBS without Ca/Mg, 25 minutes) following a 4 minute 0.5X Versene (Life Technologies Catalog Number: 15040-066) treatment and two PBS washes. Trypsinized cells were inactivated in 10% FBS containing maintenance medium, centrifuged 6 minutes at 50 g, resuspended in hepatocyte maintenance medium, filtered through a 40 uM cell strainer, and adjusted to a density of 0.25E6 cells/ml. Infected cells were seeded on 384 well collagen coated plates (Greiner, Austria) at a density of 20,000 cells/well containing serially diluted compounds of the present disclosure or DMSO (0.5%) in a final volume of 80 μl. The assay plates were incubated for a period of 5 days and the antiviral activity of the test compounds were assayed by detecting the presence of HBV DNA in the culture supernatant using the QuantiGene™ 2.0 nucleic acid quantification kit (Affymetrix, Santa Clara, CA).

Each structure is given as a SMILES string. Converted amounts (≈) assume the structure as drawn. Where only a bound is given, the exact number is not on record here.

Regarding `CCC1(CC)CC(OC(=O)C(C)(C)NP(=O)(CO[C@H](C)Cn2cnc3c(N)ncnc32)NC(C)(C)C(=O)OC2CC(CC)(CC)C2)C1` [Example 49, Bis(3,3-diethylcyclobutyl) 2,2′-(((((1-(6-amino-9H-purin-9-yl)propan-2-yl)oxy)methyl)phosphoryl)bis(azanediyl))(R)-bis(2-methylpropanoate)], the kinetic solubility at 24 h in data set [1] amounted to 4 µg/mL (≈ 5.9 µM). The CC50 at 5 days is 5220 nM in data set [2] and greater than 100 nM in data set [3]. The EC50 in the data set with HBV stood at 5.45 nM.
Take `C[C@H](Cn1cnc2c(N)ncnc21)OCP(=O)(NC(C)(C)C(=O)OCC1CC2(CCC2)C1)NC(C)(C)C(=O)OCC1CC2(CCC2)C1` (stereo partly drawn) [Example 50, Bis(spiro[3.3]heptan-2-ylmethyl) 2,2′-(((((1-(6-amino-9H-purin-9-yl)propan-2-yl)oxy)methyl)phosphoryl)bis(azanediyl))(R)-bis(2-methylpropanoate)]: in data set [1], the solubility (kinetic) at 24 h was less than 1 µg/mL. Besides, the CC50 at 5 days in data set [2] was 8060 nM; in data set [3], greater than 100 nM. Also, in the data set with HBV, the EC50 is 3.1 nM.
In data set [1], `C[C@H](Cn1cnc2c(N)ncnc21)OCP(=O)(NC(C)(C)C(=O)O[C@H]1C[C@@H](C(C)(C)C)C1)NC(C)(C)C(=O)O[C@H]1C[C@@H](C(C)(C)C)C1` [Example 51, Bis((1S,3S)-3-(tert-butyl)cyclobutyl) 2,2′-((((((R)-1-(6-amino-9H-purin-9-yl)propan-2-yl)oxy)methyl)phosphoryl)bis(azanediyl))bis(2-methylpropanoate)] yielded a kinetic solubility at 24 h of 6 µg/mL (≈ 8.85 µM). Moreover, the CC50 at 5 days in data set [2] was 7250 nM; in data set [3], greater than 100 nM. This compound returned an EC50 in the data set with HBV of 6 nM.
`C[C@H](Cn1cnc2c(N)ncnc21)OCP(=O)(NC(C)(C)C(=O)O[C@H]1C[C@H](C(C)(C)C)C1)NC(C)(C)C(=O)O[C@H]1C[C@H](C(C)(C)C)C1` [Example 52, Bis((1R,3R)-3-(tert-butyl)cyclobutyl) 2,2′-((((((R)-1-(6-amino-9H-purin-9-yl)propan-2-yl)oxy)methyl)phosphoryl)bis(azanediyl))bis(2-methylpropanoate)]: the solubility (kinetic) at 24 h in data set [1] was less than 1 µg/mL. Also, the CC50 at 5 days in data set [2] was 7190 nM; in data set [3], greater than 100 nM. This compound displayed an EC50 in the data set with HBV of 14.4 nM.
The compound `C[C@H](Cn1cnc2c(N)ncnc21)OCP(=O)(NC(C)(C)C(=O)OCC1CCC2(CCC2)CC1)NC(C)(C)C(=O)OCC1CCC2(CCC2)CC1` (stereo partly drawn) [Example 53, Bis(spiro[3.5]nonan-7-ylmethyl) 2,2′-(((((1-(6-amino-9H-purin-9-yl)propan-2-yl)oxy)methyl)phosphoryl)bis(azanediyl))(R)-bis(2-methylpropanoate)] yielded a kinetic solubility at 24 h in data set [1] of less than 1 µg/mL. In addition, the results for the CC50 at 5 days in data set [2] and in data set [3] were 7550 nM and greater than 100 nM, respectively. The compound also showed an EC50 in the data set with HBV of 8.38 nM.
`CCC(C)(C)CCOC(=O)C(C)(C)NP(=O)(CO[C@H](C)Cn1cnc2c(N)ncnc21)NC(C)(C)C(=O)OCCC(C)(C)CC` [Example 54, Bis(3,3-dimethylpentyl) 2,2′-(((((1-(6-amino-9H-purin-9-yl)propan-2-yl)oxy)methyl)phosphoryl)bis(azanediyl))(R)-bis(2-methylpropanoate)] registered a solubility (kinetic) at 24 h in data set [1] of 12 µg/mL (≈ 18.4 µM). For the same compound, the results for the CC50 at 5 days in data set [2] and in data set [3] were 6720 nM and greater than 100 nM, respectively. This compound also returned an EC50 in the data set on HBV of 4.45 nM.
In data set [1], `C[C@H](Cn1cnc2c(N)ncnc21)OCP(=O)(NC(C)(C)C(=O)O[C@H](C)C1CCCCC1)NC(C)(C)C(=O)O[C@H](C)C1CCCCC1` [Example 55, Bis((R)-1-cyclohexylethyl) 2,2′-((((((R)-1-(6-amino-9H-purin-9-yl)propan-2-yl)oxy)methyl)phosphoryl)bis(azanediyl))bis(2-methylpropanoate)] showed a kinetic solubility at 24 h of less than 1 µg/mL. The CC50 at 5 days in data set [2] is 9420 nM; in data set [3], greater than 100 nM. The same compound returned an EC50 in the data set with HBV of 6.26 nM.
In data set [1], `C[C@H](Cn1cnc2c(N)ncnc21)OCP(=O)(NC(C)(C)C(=O)O[C@@H](C)C1CCCCC1)NC(C)(C)C(=O)O[C@@H](C)C1CCCCC1` [Example 56, Bis((S)-1-cyclohexylethyl) 2,2′-((((((R)-1-(6-amino-9H-purin-9-yl)propan-2-yl)oxy)methyl)phosphoryl)bis(azanediyl))bis(2-methylpropanoate)] yielded a kinetic solubility at 24 h of 5 µg/mL (≈ 7.38 µM). In addition, the CC50 at 5 days was 9650 nM in data set [2] and greater than 100 nM in data set [3]. The compound further had an EC50 in the data set on HBV of 3.99 nM.
With `C[C@H](Cn1cnc2c(N)ncnc21)OCP(=O)(NC(C)(C)C(=O)OCC1CC2(C1)CC1(CCC1)C2)NC(C)(C)C(=O)OCC1CC2(C1)CC1(CCC1)C2` [Example 57, Bis(dispiro[3.1.3^6.1^4]decan-2-ylmethyl) 2,2′-(((((1-(6-amino-9H-purin-9-yl)propan-2-yl)oxy)methyl)phosphoryl)bis(azanediyl))(R)-bis(2-methylpropanoate)], the kinetic solubility at 24 h in data set [1] was less than 1 µg/mL. The CC50 at 5 days in data set [2] is 6620 nM; in data set [3] it was greater than 100 nM. This compound also displayed an EC50 in the data set on HBV of 4.71 nM.
Take `C[C@H](Cn1cnc2c(N)ncnc21)OCP(=O)(NC(C)(C)C(=O)OCC1CC2(C1)CC(F)(F)C2)NC(C)(C)C(=O)OCC1CC2(C1)CC(F)(F)C2` [Example 58, Bis((6,6-difluorospiro[3.3]heptan-2-yl)methyl) 2,2′-(((((1-(6-amino-9H-purin-9-yl)propan-2-yl)oxy)methyl)phosphoryl)bis(azanediyl))(R)-bis(2-methylpropanoate)]: the kinetic solubility at 24 h in data set [1] was 51 µg/mL (≈ 68.4 µM). For the same compound, the CC50 at 5 days in data set [2] is 3680 nM; in data set [3] it was greater than 100 nM. Also, in the data set with HBV, a half-maximal effect (EC50) was put at 1.26 nM.
In data set [1], `C[C@H](Cn1cnc2c(N)ncnc21)OCP(=O)(NC(C)(C)C(=O)OCC12CC3CC(CC(C3)C1)C2)NC(C)(C)C(=O)OCC12CC3CC(CC(C3)C1)C2` [Example 59, Bis(((1S,3S)-adamantan-1-yl)methyl) 2,2′-((((((R)-1-(6-amino-9H-purin-9-yl)propan-2-yl)oxy)methyl)phosphoryl)bis(azanediyl))bis(2-methylpropanoate)] showed a kinetic solubility at 24 h of less than 1 µg/mL. In addition, the CC50 at 5 days in data set [2] is 6960 nM; in data set [3] it was greater than 100 nM. This compound came in with an EC50 with HBV of 6.53 nM.
In the case of `C[C@H](Cn1cnc2c(N)ncnc21)OCP(=O)(NC(C)(C)C(=O)O[C@@H]1C[C@@H]2C[C@@H]2C1)NC(C)(C)C(=O)O[C@@H]1C[C@@H]2C[C@@H]2C1` [Example 60, Di((1R,3R,5S)-bicyclo[3.1.0]hexan-3-yl) 2,2′-((((((R)-1-(6-amino-9H-purin-9-yl)propan-2-yl)oxy)methyl)phosphoryl)bis(azanediyl))bis(2-methylpropanoate)], the solubility (kinetic) at 24 h in data set [1] turned out to be 76 µg/mL (≈ 123 µM). Besides, the CC50 at 5 days in data set [2] was 3310 nM; in data set [3], greater than 100 nM. In the data set with HBV, the EC50 was 1.44 nM.
In data set [1], `CCCCCCOC(=O)C(C)(C)NP(=O)(CO[C@H](C)Cn1cnc2c(=N)n(Cc3oc(=O)oc3C)cnc21)NC(C)(C)C(=O)OCCCCCC` [Example 83, Dihexyl 2,2′-(((((1-(6-imino-1-((5-methyl-2-oxo-1,3-dioxol-4-yl)methyl)-1,6-dihydro-9H-purin-9-yl)propan-2-yl)oxy)methyl)phosphoryl)bis(azanediyl))(R)-bis(2-methylpropanoate)] came in with a kinetic solubility at 24 h of 33 µg/mL (≈ 44.7 µM). The CC50 at 5 days was 6600 nM in data set [2] and greater than 100 nM in data set [3]. Also, the EC50 with HBV amounted to 2.14 nM.
